Key:
Assay type in all cases: cell-based, human
[1] = system: 786-0; test: NCI growth inhibition screen, renal panel; set-up: key: = means equivalent activity; + means that it appears to be significantly better (i.e., by ˜2x); < means it appears to be less active than ET18OCH3 (˜2x); a combination like =/+ or </+ means that activity is dependent upon the isomer; a combination like =/+ or </+ means that activity is dependent upon the isomer; details: 786-0, Renal; from GI50s
Method: (§1) Candidates deemed suitable for in vivo testing were then synthesized in large scale quantities and some of this material was sent to the NCI's Developmental Therapeutics Program for a battery of growth inhibitory studies against various human tumor cell lines (60 cell lines, 9 different panels). The remainder of the material was used to assess in vivo efficacy using murine tumor models. Additionally, studies were conducted on the lead candidates to discern mechanism of action with particular emphasis on these agents apoptotic ability as measured by caspase 3 activity. The details (materials and methods) for these various assays are described further in the following discussion.
(§2) Ten compounds were also sent to NCI's Drug Discovery Program for screening against numerous human tumor cell lines (9 panels total: renal ovarian, colon, CNS, non-small cell lung, leukemia, breast, melanoma, and prostate). The data are shown in FIGS. 2a-i which also include data regarding D- and L-ET-18-OCH3 (listed as L-EL and D-EL in the figures). Upon examining the data, one is struck by how 1R and 1a′S standout in comparison to the other compounds, especially for the renal, ovarian, colon, and CNS panels.

[2] = system: TK-10; test: NCI growth inhibition screen, renal panel; set-up: key: = means equivalent activity; + means that it appears to be significantly better (i.e., by ˜2x); < means it appears to be less active than ET18OCH3 (˜2x); a combination like =/+ or </+ means that activity is dependent upon the isomer; a combination like =/+ or </+ means that activity is dependent upon the isomer; details: TK-10, Renal; from GI50s
Method: as §1, §2

[3] = system: ACHIN; test: NCI growth inhibition screen, renal panel; set-up: key: = means equivalent activity; + means that it appears to be significantly better (i.e., by ˜2x); < means it appears to be less active than ET18OCH3 (˜2x); a combination like =/+ or </+ means that activity is dependent upon the isomer; a combination like =/+ or </+ means that activity is dependent upon the isomer; details: from GI50s
Method: as §1, §2

[4] = system: RXF 393; test: NCI growth inhibition screen, renal panel; set-up: key: = means equivalent activity; + means that it appears to be significantly better (i.e., by ˜2x); < means it appears to be less active than ET18OCH3 (˜2x); a combination like =/+ or </+ means that activity is dependent upon the isomer; a combination like =/+ or </+ means that activity is dependent upon the isomer; details: RXF 393, Renal; from GI50s
Method: as §1, §2

[5] = system: SN12C; test: NCI growth inhibition screen, renal panel; set-up: key: = means equivalent activity; + means that it appears to be significantly better (i.e., by ˜2x); < means it appears to be less active than ET18OCH3 (˜2x); a combination like =/+ or </+ means that activity is dependent upon the isomer; a combination like =/+ or </+ means that activity is dependent upon the isomer; details: from GI50s
Method: as §1, §2

[6] = system: CAK-1; test: NCI growth inhibition screen, renal panel; set-up: key: = means equivalent activity; + means that it appears to be significantly better (i.e., by ˜2x); < means it appears to be less active than ET18OCH3 (˜2x); a combination like =/+ or </+ means that activity is dependent upon the isomer; a combination like =/+ or </+ means that activity is dependent upon the isomer; details: CAK-1, Renal; from GI50s
Method: as §1, §2

[7] = system: A498; test: NCI growth inhibition screen, renal panel; set-up: key: = means equivalent activity; + means that it appears to be significantly better (i.e., by ˜2x); < means it appears to be less active than ET18OCH3 (˜2x); a combination like =/+ or </+ means that activity is dependent upon the isomer; a combination like =/+ or </+ means that activity is dependent upon the isomer; details: from GI50s
Method: as §1, §2

[8] = system: HS 578T; test: NCI growth inhibition screen, breast panel; set-up: key: = means equivalent activity; + means that it appears to be significantly better (i.e., by ˜2x); < means it appears to be less active than ET18OCH3 (˜2x); a combination like =/+ or </+ means that activity is dependent upon the isomer; a combination like =/+ or </+ means that activity is dependent upon the isomer; details: from GI50s
Method: as §1, §2

[9] = system: NCI/ADR-RES; test: NCI growth inhibition screen, breast panel; set-up: key: = means equivalent activity; + means that it appears to be significantly better (i.e., by ˜2x); < means it appears to be less active than ET18OCH3 (˜2x); a combination like =/+ or </+ means that activity is dependent upon the isomer; a combination like =/+ or </+ means that activity is dependent upon the isomer; details: from GI50s
Method: as §1, §2

[10] = system: MCF-7; test: NCI growth inhibition screen, breast panel; set-up: key to Performance as compared to ET-18-O—CH3: = means equivalent activity; + means that it appears to be significantly better (i.e., by ˜2x); < means it appears to be less active than ET18OCH3 (˜2x); a combination like =/+ or </+ means that activity is dependent upon the isomer; a combination like =/+ or </+ means that activity is dependent upon the isomer; details: for Performance as compared to ET-18-O—CH3: MCF-7, Breast, from GI50s; for activity compared to ET-18-OCH3 (in words): MCF-7 cell line, NCI screen
Method: as §1, §2

[11] = system: BT-549; test: NCI growth inhibition screen, breast panel; set-up: key to Performance as compared to ET-18-O—CH3: = means equivalent activity; + means that it appears to be significantly better (i.e., by ˜2x); < means it appears to be less active than ET18OCH3 (˜2x); a combination like =/+ or </+ means that activity is dependent upon the isomer; a combination like =/+ or </+ means that activity is dependent upon the isomer; details: for Performance as compared to ET-18-O—CH3: BT-549, Breast, from GI50s; for activity compared to ET-18-OCH3 (in words): BT-549 cell line, NCI screen
Method: as §1, §2

[12] = system: T-47D; test: NCI growth inhibition screen, breast panel; set-up: key to Performance as compared to ET-18-O—CH3: = means equivalent activity; + means that it appears to be significantly better (i.e., by ˜2x); < means it appears to be less active than ET18OCH3 (˜2x); a combination like =/+ or </+ means that activity is dependent upon the isomer; a combination like =/+ or </+ means that activity is dependent upon the isomer; details: for Performance as compared to ET-18-O—CH3: T-47D, Breast, from GI50s; for GI50: breast cancer cell line T-47D, NCI screen
Method: as §1, §2

Structure (SMILES): CCCCCCCCCCCCCCCCCCOC[C@@H](COP(=O)([O-])OCC[N+](C)(C)C)OS(C)(=O)=O [1a′S]
- Performance as compared to ET-18-O—CH3 [1]: 0
- Performance as compared to ET-18-O—CH3 [2]: 0
- Performance as compared to ET-18-O—CH3 [3]: 0
- Performance as compared to ET-18-O—CH3 [4]: 32
- Performance as compared to ET-18-O—CH3 [5]: 0
- Performance as compared to ET-18-O—CH3 [6]: 0
- Performance as compared to ET-18-O—CH3 [7]: 0
- Performance as compared to ET-18-O—CH3 [8]: 0
- Performance as compared to ET-18-O—CH3 [9]: 0
- Performance as compared to ET-18-O—CH3 [10]: 128
- activity compared to ET-18-OCH3 (in words) [10]: more active than ET-18-OCH3
- Performance as compared to ET-18-O—CH3 [11]: 0
- activity compared to ET-18-OCH3 (in words) [11]: more active than ET-18-OCH3
- Performance as compared to ET-18-O—CH3 [12]: <
- GI50 [12]: ≥ 15 µM

Structure (SMILES): CCCCCCCCCCCCCCCCCCOCC(COP(=O)([O-])OCC[N+](C)(C)C)OS(C)(=O)=O (stereo not drawn) [Compound 1aR]
- Performance as compared to ET-18-O—CH3 [1]: =
- Performance as compared to ET-18-O—CH3 [2]: =
- Performance as compared to ET-18-O—CH3 [3]: =
- Performance as compared to ET-18-O—CH3 [4]: =
- Performance as compared to ET-18-O—CH3 [5]: =
- Performance as compared to ET-18-O—CH3 [6]: =
- Performance as compared to ET-18-O—CH3 [7]: =
- Performance as compared to ET-18-O—CH3 [8]: =
- Performance as compared to ET-18-O—CH3 [9]: =
- Performance as compared to ET-18-O—CH3 [10]: +
- activity compared to ET-18-OCH3 (in words) [10]: more active than ET-18-OCH3
- Performance as compared to ET-18-O—CH3 [11]: +
- activity compared to ET-18-OCH3 (in words) [11]: more active than ET-18-OCH3
- Performance as compared to ET-18-O—CH3 [12]: +
- GI50 [12]: < 2.5 µM
